This note sets out measurements from patent US20070117770A1, “Human ribosomal DNA (rDNA) and ribosomal RNA (rRNA) nucleic acids and uses thereof” (Cylene Pharmaceuticals, Inc., priority 2005, published 2007).

Some results are limits rather than exact numbers.

T1 sequence (P19338 284-710 limits assumed): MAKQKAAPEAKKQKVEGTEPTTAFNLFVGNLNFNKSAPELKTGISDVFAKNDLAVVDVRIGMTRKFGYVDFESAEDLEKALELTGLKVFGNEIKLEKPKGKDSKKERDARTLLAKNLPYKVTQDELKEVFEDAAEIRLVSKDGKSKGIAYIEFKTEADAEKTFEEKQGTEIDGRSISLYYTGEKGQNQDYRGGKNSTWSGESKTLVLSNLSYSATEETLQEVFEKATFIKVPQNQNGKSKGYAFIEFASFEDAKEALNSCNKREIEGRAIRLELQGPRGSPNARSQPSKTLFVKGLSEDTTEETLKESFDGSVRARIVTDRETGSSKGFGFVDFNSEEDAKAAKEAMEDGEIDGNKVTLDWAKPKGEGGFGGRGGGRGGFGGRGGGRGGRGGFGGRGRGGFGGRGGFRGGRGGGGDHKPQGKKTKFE

One data set has as its target T1, nucleolin (Homo sapiens, UniProt P19338).
T1 construct: without the N-terminal acidic stretches domain
Kind of data set: Filter-binding assay of 32P-labeled quadruplexes and Nucleolin.
Details: not given
Here is the method:
The assay also was conducted in a filter-binding format. […] The protein-quadruplex mixtures were incubated for 30 min at ambient temperature and filtered through mixed cellulose ester membrane filters (Millipore) with gentle suction. The filters were washed twice with […] of binding buffer, dried and OptiPhase ‘SuperMix’ scintillation cocktail (Perkin Elmer) was added to the wells. Radioactivity was assayed with MicroBeta scintillation counter (Perkin Elmer). Binding curves were constructed and apparent Kd's and Bmax's for the complexes were calculated using the GraphPad Prizm software program (GraphPad Software). In the following table, the nucleic acid ligand is designated in the first column using the nomenclature described herein; the second column provides the nucleotide sequence of the nucleic acid ligand; the third column is the conformation of the ligand as determined by circular dichroism (M is mixed, P is parallel, A is antiparallel, C is complex, SS is single-stranded and ND is not determined); the fourth column is the dissociation constant determined by the filter binding assay of nucleolin protein and the nucleic acid ligand; the fifth column is a Bmax constant determined by the filter binding assay, which is the percent of active nucleic acid ligand in each assay; and the sixth column presents the concentration of Compound A-1 required to dissociate half of the complexed nucleic acid ligand and nucleolin protein, as determined by the EMSA assay described above.
As for “AGGGACCGGTGGGGCCGGGGCGGGG (DNA, backbone and methylation of C not given here; listed as Homo sapiens) [Compound 3468T]”, the “Bmax, percent of active nucleic acid ligand” value (“Bmax, percent” below) was determined as 21%. Same read-out and setting: the result for “AGGGACGCCTGGGGAAGGGAGGGGG (DNA, backbone and methylation of C not given here; listed as Homo sapiens) [Compound 1310T]” reads 50%; that for “AGGGAGGACGCGGGGCCGGGGGGCGGAGACGGG (DNA, backbone and methylation of C not given here; listed as Homo sapiens) [Compound 8716T]”, 49%; that for “AGGGAGGGAGACGGGGGGG (DNA, backbone and methylation of C not given here; listed as Homo sapiens) [Compound 5701NT]”, 84%. On the same count and under the same terms, the result for “AGGGCGCGGGGTGGGGAGGG (DNA, backbone and methylation of C not given here; listed as Homo sapiens) [Compound 10951T]” reads 52%; that for “AGGGCGGACGGGAGGGAGCGAGCGGGCGCGGGGG (DNA, backbone and methylation of C not given here; listed as Homo sapiens) [Compound 3500T]”, 20%; that for “AGGGCGGGCGGCGGGGCGGG (DNA, backbone and methylation of C not given here; listed as Homo sapiens) [Compound 7499T]”, 16%. On the same count and under the same terms, the value for “AGGGGACACCGGGGGGGCGCCGGGGG (DNA, backbone and methylation of C not given here; listed as Homo sapiens) [Compound 11888T]” was 47%; that for “AGGGGAGGGGGGAGGACGGGGAGCGGGGG (DNA, backbone and methylation of C not given here; listed as Homo sapiens) [Compound 10985T]” was 35%. “AGGGGCGGCGGGGAGGAGGAGGGGCGCGGGG (DNA, backbone and methylation of C not given here; listed as Homo sapiens) [Compound 7370T]”: the “Bmax, percent” value is 16%. Still for that read-out and setting: the result for “AGGGGCGGCGGGGGAAGGGAGGGCGGGTGGAGGGGTCGGGAGGAACGGGGGGCGGG (DNA, backbone and methylation of C not given here; listed as Homo sapiens) [Compound 8440T]” reads 35%. With “AGGGGCGGGGGCGCGGGGAGGAGGGGTGGG (DNA, backbone and methylation of C not given here; listed as Homo sapiens) [Compound 9024T]”, the “Bmax, percent” value was found to be 43%. Still for that read-out and setting: the value for “AGGGGCTCCGGGGGCGGGGAGCGGGGCGTGGGCGGGAGGAGGGG (DNA, backbone and methylation of C not given here; listed as Homo sapiens) [Compound 10137T]” was 65%; that for “AGGGGGGAACGGGGGGCGGACGGGGCCGGGGGGGTAGGGCGGGGGG (DNA, backbone and methylation of C not given here; listed as Homo sapiens) [Compound 11345T]” was 32%. Same read-out and setting: the result for “AGGGGGTGGGCGCCGGGAGGGGGG (DNA, backbone and methylation of C not given here; listed as Homo sapiens) [Compound 8904T]” reads 31%.

Consider “AGGGTGGGGCGGGGGAGGGCCGCGAGGGGGGTGCCCCGGGCGTGGGGGGGG (DNA, backbone and methylation of C not given here; listed as Homo sapiens) [Compound 10885T]”, for which the “Bmax, percent” value came to 82%.

In the case of “GGGCCCGCGGGGGGAGGGGGAAGGGGCGGG (DNA, backbone and methylation of C not given here; listed as Homo sapiens) [Compound 6914T]”, the “Bmax, percent” value was determined as 50%. On the same count and under the same terms, the result for “GGGCGGGGGGGGCGGGGGG (DNA, backbone and methylation of C not given here; listed as Homo sapiens) [Compound 6534NT]” reads 51%; that for “GGGGGCGGGAACCCCCGGGCGCCTGTGGG (DNA, backbone and methylation of C not given here; listed as Homo sapiens) [Compound 6374NT]”, 47%.

Turning to “GGGGTGGGGGGGAGGG (listed as DNA, chemistry not given here; listed as Homo sapiens) [Compound 13079NT]”, the “Bmax, percent” value came out at 37%.

For the sequence “GGGTCCGGAAGGGGAAGGGTGCCGGCGGGGAGAGAGGGTCGGGGG (DNA, backbone and methylation of C not given here; listed as Homo sapiens) [Compound 7253NT]”, the “Bmax, percent” value is on record as 60%. On the same count and under the same terms, the result for “GGGTCGGGGGGTGGGGCCCGGGCCGGGG (listed as DNA, chemistry not given here; listed as Homo sapiens) [Compound 2957NT]” reads 66%; that for “GGGTGGACGGGGGGGCCTGGTGGGG (listed as DNA, chemistry not given here; listed as Homo sapiens) [Compound 1196NT]”, 41%; that for “GGGTGGCGGGGGGGAGAGGGGGG (listed as DNA, chemistry not given here; listed as Homo sapiens) [Compound 6960NT]”, 68%.

For “TGGGGAGGGTGGGGAGGGTGGGGAATT (DNA, backbone not given here; listed as Homo sapiens) [Myc27, reference compound]”, the “Bmax, percent” value is listed as 33%.

The data set is the same for the next values; noted with them: 0.2 nM 32P-labeled quadruplex, read-out: Kd, apparent dissociation constant of nucleolin protein and the nucleic acid ligand.
In the case of “AGGGACCGGTGGGGCCGGGGCGGGG (DNA, backbone and methylation of C not given here; listed as Homo sapiens) [Compound 3468T]”, the Kd was 2.4 nM.

Turning to “AGGGACGCCTGGGGAAGGGAGGGGG (DNA, backbone and methylation of C not given here; listed as Homo sapiens) [Compound 1310T]”, the Kd stood at 4.4 nM. Still for that read-out and setting: the value for “AGGGACGGGGACCGGCGGGCCACGGGG (DNA, backbone and methylation of C not given here; listed as Homo sapiens) [Compound 13236T]” was more than 30 nM.

For “AGGGAGGACGCGGGGCCGGGGGGCGGAGACGGG (DNA, backbone and methylation of C not given here; listed as Homo sapiens) [Compound 8716T]”, the Kd worked out at 3.1 nM. Still for that read-out and setting: the value for “AGGGAGGGAGACGGGGGGG (DNA, backbone and methylation of C not given here; listed as Homo sapiens) [Compound 5701NT]” was 3.2 nM; that for “AGGGCGCGGGGTGGGGAGGG (DNA, backbone and methylation of C not given here; listed as Homo sapiens) [Compound 10951T]” was 0.2 nM; that for “AGGGCGGACGGGAGGGAGCGAGCGGGCGCGGGGG (DNA, backbone and methylation of C not given here; listed as Homo sapiens) [Compound 3500T]” was 1.1 nM.

On to “AGGGCGGGCGGCGGGGCGGG (DNA, backbone and methylation of C not given here; listed as Homo sapiens) [Compound 7499T]”, for which the Kd was determined as 1.1 nM.

As to “AGGGGACACCGGGGGGGCGCCGGGGG (DNA, backbone and methylation of C not given here; listed as Homo sapiens) [Compound 11888T]”, the Kd turned out to be 0.2 nM.

Consider “AGGGGAGGGGGGAGGACGGGGAGCGGGGG (DNA, backbone and methylation of C not given here; listed as Homo sapiens) [Compound 10985T]”, for which the Kd is 0.2 nM. On the same count and under the same terms, the result for “AGGGGCGGCGGGGAGGAGGAGGGGCGCGGGG (DNA, backbone and methylation of C not given here; listed as Homo sapiens) [Compound 7370T]” reads 1.1 nM. Still for that read-out and setting: the result for “AGGGGCGGCGGGGGAAGGGAGGGCGGGTGGAGGGGTCGGGAGGAACGGGGGGCGGG (DNA, backbone and methylation of C not given here; listed as Homo sapiens) [Compound 8440T]” reads 0.3 nM; that for “AGGGGCGGGGGCGCGGGGAGGAGGGGTGGG (DNA, backbone and methylation of C not given here; listed as Homo sapiens) [Compound 9024T]”, 0.3 nM. Still for that read-out and setting: the result for “AGGGGCTCCGGGGGCGGGGAGCGGGGCGTGGGCGGGAGGAGGGG (DNA, backbone and methylation of C not given here; listed as Homo sapiens) [Compound 10137T]” reads 0.4 nM; that for “AGGGGGGAACGGGGGGCGGACGGGGCCGGGGGGGTAGGGCGGGGGG (DNA, backbone and methylation of C not given here; listed as Homo sapiens) [Compound 11345T]”, 0.3 nM; that for “AGGGGGTGGGCGCCGGGAGGGGGG (DNA, backbone and methylation of C not given here; listed as Homo sapiens) [Compound 8904T]”, 0.4 nM. In the case of “AGGGTGGGGCGGGGGAGGGCCGCGAGGGGGGTGCCCCGGGCGTGGGGGGGG (DNA, backbone and methylation of C not given here; listed as Homo sapiens) [Compound 10885T]”, the Kd is 0.2 nM. Consider “AGGGTTAGGGTTAGGGTTAGGG [hTeI, reference compound]”, for which the Kd is more than 30 nM. Same read-out and setting: the value for “GGAGGAGGAGGA (DNA, backbone not given here; listed as Homo sapiens) [GGA4, reference compound]” was more than 30 nM; that for “GGGCCCGCGGGGGGAGGGGGAAGGGGCGGG (DNA, backbone and methylation of C not given here; listed as Homo sapiens) [Compound 6914T]” was 0.8 nM. On the same count and under the same terms, the value for “GGGCCGGGACGGGGTCCGGGG (listed as DNA, chemistry not given here; listed as Homo sapiens) [Compound 13173NT]” was more than 30 nM; that for “GGGCGGGGGGGGCGGGGGG (DNA, backbone and methylation of C not given here; listed as Homo sapiens) [Compound 6534NT]” was 1.1 nM. Same read-out and setting: the result for “GGGCTGGGTCGGTCGGGCTGGGG (listed as DNA, chemistry not given here; listed as Homo sapiens) [Compound 10816NT]” reads more than 30 nM. As for “GGGGGCGGGAACCCCCGGGCGCCTGTGGG (DNA, backbone and methylation of C not given here; listed as Homo sapiens) [Compound 6374NT]”, the Kd turned out to be 5.5 nM.

“GGGGTGGGGGGGAGGG (listed as DNA, chemistry not given here; listed as Homo sapiens) [Compound 13079NT]”: the Kd came out at 2.6 nM. On the same count and under the same terms, the result for “GGGTCCGGAAGGGGAAGGGTGCCGGCGGGGAGAGAGGGTCGGGGG (DNA, backbone and methylation of C not given here; listed as Homo sapiens) [Compound 7253NT]” reads 0.4 nM; that for “GGGTCGGGGGGTGGGGCCCGGGCCGGGG (listed as DNA, chemistry not given here; listed as Homo sapiens) [Compound 2957NT]”, 2.7 nM.

As to “GGGTGGACGGGGGGGCCTGGTGGGG (listed as DNA, chemistry not given here; listed as Homo sapiens) [Compound 1196NT]”, the Kd worked out at 4.2 nM. Same read-out and setting: the value for “GGGTGGCGGGGGGGAGAGGGGGG (listed as DNA, chemistry not given here; listed as Homo sapiens) [Compound 6960NT]” was 0.5 nM; that for “GTCGTAACGTCGATCAGTTTACGACAT (DNA, backbone and methylation of C not given here; listed as Homo sapiens) [RND27, reference compound]” was more than 30 nM; that for “TGGGGAGGGTGGGGAGGGTGGGGAATT (DNA, backbone not given here; listed as Homo sapiens) [Myc27, reference compound]” was 4.4 nM.
